Activity calls are given as the source filed them. The rule behind the calls is not given here.
How the values were obtained:
Assay in all cases: in-cell serine hydrolase inhibition profile, late-stage follow-up, selectivity assay for PME-1 inhibitor project, ABPP-SILAC, LC-MS/MS, mouse cells (AID 588803)
[1] = tested on: Abhd11; conditions: serine hydrolase ratios, stronger effect = lower value
[2] = tested on: Abhd12; conditions: serine hydrolase ratios, stronger effect = lower value
[3] = tested on: Ache; conditions: serine hydrolase ratios, stronger effect = lower value
[4] = tested on: Acot1; conditions: serine hydrolase ratios, stronger effect = lower value
[5] = tested on: Acot2; conditions: serine hydrolase ratios, stronger effect = lower value
[6] = tested on: Acot7; conditions: serine hydrolase ratios, stronger effect = lower value
[7] = tested on: Acot9; conditions: serine hydrolase ratios, stronger effect = lower value
[8] = target: Acyl-protein thioesterase 1 (Mus musculus) (UniProt P97823); conditions: serine hydrolase ratios, Lypla1, stronger effect = lower value
Chain of Acyl-protein thioesterase 1 (Mus musculus) (P97823 whole entry, looked up): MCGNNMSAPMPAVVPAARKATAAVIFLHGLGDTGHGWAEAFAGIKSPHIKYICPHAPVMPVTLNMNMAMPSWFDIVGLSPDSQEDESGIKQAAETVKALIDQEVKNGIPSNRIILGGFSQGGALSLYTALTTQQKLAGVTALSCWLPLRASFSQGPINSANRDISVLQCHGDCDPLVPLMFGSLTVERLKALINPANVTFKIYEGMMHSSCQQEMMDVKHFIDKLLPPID

[9] = tested on: Apeh; conditions: serine hydrolase ratios, stronger effect = lower value
[10] = tested on: Bat5; conditions: serine hydrolase ratios, stronger effect = lower value
[11] = tested on: Ctsa; conditions: serine hydrolase ratios, stronger effect = lower value
[12] = tested on: Ddhd2; conditions: serine hydrolase ratios, stronger effect = lower value
[13] = tested on: Dpp7; conditions: serine hydrolase ratios, stronger effect = lower value
[14] = tested on: Dpp8; conditions: serine hydrolase ratios, stronger effect = lower value
[15] = tested on: Dpp9; conditions: serine hydrolase ratios, stronger effect = lower value
[16] = tested on: Faah; conditions: serine hydrolase ratios, stronger effect = lower value
[17] = tested on: Fam108b1; conditions: serine hydrolase ratios, stronger effect = lower value
[18] = tested on: Fasn; conditions: serine hydrolase ratios, stronger effect = lower value
[19] = tested on: Htra2; conditions: serine hydrolase ratios, stronger effect = lower value
[20] = tested on: Iah1; conditions: serine hydrolase ratios, stronger effect = lower value
[21] = tested on: Lypla2; conditions: serine hydrolase ratios, stronger effect = lower value
[22] = tested on: Lyplal1; conditions: serine hydrolase ratios, stronger effect = lower value
[23] = target: Monoacylglycerol lipase ABHD6 (Mus musculus) (UniProt Q8R2Y0); conditions: serine hydrolase ratios, stronger effect = lower value
Chain of Monoacylglycerol lipase ABHD6 (Mus musculus) (Q8R2Y0 whole entry, looked up): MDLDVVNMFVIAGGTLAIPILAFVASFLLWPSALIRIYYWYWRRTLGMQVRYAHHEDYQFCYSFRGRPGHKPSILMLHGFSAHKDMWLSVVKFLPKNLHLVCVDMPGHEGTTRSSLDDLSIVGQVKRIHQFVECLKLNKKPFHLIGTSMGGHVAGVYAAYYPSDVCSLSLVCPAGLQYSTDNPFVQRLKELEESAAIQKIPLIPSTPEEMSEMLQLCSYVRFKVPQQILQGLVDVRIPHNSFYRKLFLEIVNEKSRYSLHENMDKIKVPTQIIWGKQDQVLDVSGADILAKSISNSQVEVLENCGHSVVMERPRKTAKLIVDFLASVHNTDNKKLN

[24] = tested on: Nceh1; conditions: serine hydrolase ratios, stronger effect = lower value
[25] = tested on: Pafah1b2; conditions: serine hydrolase ratios, stronger effect = lower value
[26] = tested on: Pafah1b3; conditions: serine hydrolase ratios, stronger effect = lower value
[27] = target: Palmitoyl-protein thioesterase ABHD10, mitochondrial (Mus musculus) (UniProt Q6PE15); conditions: serine hydrolase ratios, stronger effect = lower value
Chain of Palmitoyl-protein thioesterase ABHD10, mitochondrial (Mus musculus) (Q6PE15 whole entry, looked up): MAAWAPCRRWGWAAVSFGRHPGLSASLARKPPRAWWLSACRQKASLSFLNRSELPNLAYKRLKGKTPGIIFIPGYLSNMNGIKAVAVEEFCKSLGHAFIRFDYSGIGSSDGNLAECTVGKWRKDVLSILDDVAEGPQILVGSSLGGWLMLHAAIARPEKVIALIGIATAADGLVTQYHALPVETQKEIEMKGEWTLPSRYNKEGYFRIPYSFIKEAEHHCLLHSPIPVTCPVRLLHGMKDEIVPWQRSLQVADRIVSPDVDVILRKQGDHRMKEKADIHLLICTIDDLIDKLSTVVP

[28] = tested on: Parl; conditions: serine hydrolase ratios, stronger effect = lower value
[29] = tested on: Pgap1; conditions: serine hydrolase ratios, stronger effect = lower value
[30] = tested on: Pla2g15; conditions: serine hydrolase ratios, stronger effect = lower value
[31] = tested on: Pla2g6; conditions: serine hydrolase ratios, stronger effect = lower value
[32] = target: Platelet-activating factor acetylhydrolase 2, cytoplasmic (Mus musculus) (UniProt Q8VDG7); conditions: serine hydrolase ratios, Pafah2, stronger effect = lower value
Chain of Platelet-activating factor acetylhydrolase 2, cytoplasmic (Mus musculus) (Q8VDG7 whole entry, looked up): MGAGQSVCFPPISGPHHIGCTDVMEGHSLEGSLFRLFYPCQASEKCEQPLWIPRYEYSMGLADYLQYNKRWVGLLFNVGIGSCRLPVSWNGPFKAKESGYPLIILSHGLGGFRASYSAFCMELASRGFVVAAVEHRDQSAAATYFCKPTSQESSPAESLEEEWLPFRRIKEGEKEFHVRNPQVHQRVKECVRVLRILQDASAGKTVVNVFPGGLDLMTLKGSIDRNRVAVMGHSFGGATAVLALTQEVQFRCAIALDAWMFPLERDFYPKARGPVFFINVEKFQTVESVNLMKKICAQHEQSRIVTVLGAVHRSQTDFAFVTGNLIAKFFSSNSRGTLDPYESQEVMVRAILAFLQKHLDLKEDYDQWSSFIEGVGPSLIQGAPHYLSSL

[33] = tested on: Pme1; conditions: serine hydrolase ratios, stronger effect = lower value
[34] = tested on: Pnpla8; conditions: serine hydrolase ratios, stronger effect = lower value
[35] = tested on: Ppt2; conditions: serine hydrolase ratios, stronger effect = lower value
[36] = tested on: Prcp; conditions: serine hydrolase ratios, stronger effect = lower value
[37] = tested on: Prepl; conditions: serine hydrolase ratios, stronger effect = lower value
[38] = target: Prolyl endopeptidase (Mus musculus) (UniProt Q9QUR6); conditions: serine hydrolase ratios, Prep, stronger effect = lower value
Chain of Prolyl endopeptidase (Mus musculus) (Q9QUR6 whole entry, looked up): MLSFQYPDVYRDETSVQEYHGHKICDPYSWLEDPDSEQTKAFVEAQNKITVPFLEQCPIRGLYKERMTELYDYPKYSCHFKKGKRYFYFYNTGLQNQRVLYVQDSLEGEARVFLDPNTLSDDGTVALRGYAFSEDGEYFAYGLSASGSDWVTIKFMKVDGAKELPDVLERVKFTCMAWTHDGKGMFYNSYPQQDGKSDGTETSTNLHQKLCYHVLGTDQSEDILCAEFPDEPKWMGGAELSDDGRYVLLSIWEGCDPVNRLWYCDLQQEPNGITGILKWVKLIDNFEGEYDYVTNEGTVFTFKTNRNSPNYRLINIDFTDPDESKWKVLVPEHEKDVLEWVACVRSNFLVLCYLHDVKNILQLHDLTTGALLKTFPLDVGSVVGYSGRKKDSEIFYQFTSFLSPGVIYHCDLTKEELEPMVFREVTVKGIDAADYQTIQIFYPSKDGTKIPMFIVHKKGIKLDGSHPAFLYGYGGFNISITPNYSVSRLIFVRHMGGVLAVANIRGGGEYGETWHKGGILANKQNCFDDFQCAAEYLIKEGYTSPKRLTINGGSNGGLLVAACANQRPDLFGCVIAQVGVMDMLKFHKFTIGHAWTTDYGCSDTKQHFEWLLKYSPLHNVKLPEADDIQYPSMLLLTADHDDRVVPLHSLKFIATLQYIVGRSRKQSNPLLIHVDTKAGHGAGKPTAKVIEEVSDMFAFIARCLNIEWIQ

[39] = tested on: Rbbp9; conditions: serine hydrolase ratios, stronger effect = lower value
[40] = tested on: Serhl; conditions: serine hydrolase ratios, stronger effect = lower value

Measured: SILAC ratio (probe labeling remaining)

COC(=O)N1C(=O)[C@](c2ccccc2)(C2CCCC2)N1C(=O)OC
inactive: [1] 0.946 | [2] 1.13 | [3] 0.689 | [4] 0.914 | [5] 0.873 | [6] 1.32 | [7] 0.889 | [8] 1 | [9] 0.821 | [10] 1.06 | [11] 0.869 | [12] 1.19 | [13] 0.846 | [14] 0.859 | [15] 0.937 | [16] 1.06 | [17] 1.2 | [18] 0.971 | [19] 1.07 | [20] 1 | [21] 0.927 | [22] 1.29 | [23] 0.98 | [24] 1.01 | [25] 0.887 | [26] 0.962 | [27] 0.951 | [28] 0.995 | [29] 1.1 | [30] 1.01 | [31] 0.796 | [32] 0.913 | [34] 1.09 | [35] 0.812 | [36] 0.717 | [37] 0.931 | [38] 1.01 | [39] 1.06 | [40] 1.12
active: [33] 0

— PubChem BioAssay AID588803 (The Scripps Research Institute Molecular Screening Center, 2011)
